Data taken from US20050182129A1, “Hair growth tonic” (priority 2002, published 2005).
“Also recorded” adds a separate entry of the source.

Key:
WNT-5A mRNA [1] = test: Activity of decreasing WNT-5A mRNA amount (QuantiGene bDNA method), Test Example 4; type: cell-based; conditions: Homo sapiens, Human dermal papilla cell, 24 h, human dermal papilla cells, concentration at which the mRNA amount is halved, average of 2 wells
Protocol: (§1) Human dermal papilla cells, which were purchased from Toyobo, were cultured in MEM (Invitrogen) containing 12% FBS.
(§2) The dermal papilla cells in passage 5 were sowed in a 96-well plate to give a density of 1×10^4 cells/well and cultured overnight. Then, the medium was replaced by a medium to which no compound was added or a medium containing the compounds and the culture was continued for additional 24 hours. After the completion of the culture, WNT-5A or GAPDH mRNA amount was measured by using QuantiGene High Volume Kit (Bayer Medical) by the branched DNA (bDNA) signal amplification method (Drug Metabolism and Disposition, 28(5), 608-616 (2000)). In accordance with the protocol attached to QuantiGene High Volume Kit, cells were lysed by using Lysis Mixture and the lysis solution was added to capture plate. Next, a set of probes specific to WNT-5A or GPDH was added and allowed to react at 53° C. for 20 hours. After washing the plate by using 0.1×SSC containing 0.03% lauryl sulfate, an amplification probe comprising bDNA was added and allowed to react at 46° C. for 1 hour. After washing the plate, a labeling probe labeled with alkaline phosphatase was added and allowed to react at 46° C. for 1 hour. After washing the plate, a substrate Lumi-Phos Plus was added and allowed to react at 46° C. for 30 minutes. Then, the luminescence was measured by using WALLAC 1420ARVOsx.
The WNT-5A-specific probe set was designed based on the sequence of the coding region of human WNT-5A mRNA. As capture extenders (CEs), 10 probes (SEQ ID NOs:12 to 21) were used; as label extenders (LEs), 31 probes (SEQ ID NOs:22 to 52) were employed; and as blockers, […] (SEQ ID NOs:53 to 60) were employed.
(§3) The amounts of WNT-5A and GAPDH mRNAs are expressed in relative values (%) to the control case of adding of no compound and the concentration of a compound at which the mRNA amount is halved (IC50) is calculated as an index of WNT-5A mRNA decreasing activity of the corresponding compound.

[2] = test system: hair follicles in monkey skin organ culture; test: Enlargement in hair bulb diameter in monkey skin organ culture, Test Example 8; type: cell-based, Cynomolgus monkey (Macaca fascicularis); conditions: culturing for 30 days, FIGS. 6 and 7
Protocol: (§4) The dorsal skin of a Cynomolgus monkey (Macaca fascicularis) (male, 6 years old) was collected and divided into pieces (5 mm×8 mm) under a stereoscopic microscope. Then each skin tissue piece was cultured in William's Medium E (Invitrogen) to which no compound was added or Compound 7 or Compound 3 was added and which contained 10 μg/ml of insulin (Sigma) and 10 ng/ml of hydrocortisone (Kurabo).
On the 30th day of the culturing, all follicles contained in each skin tissue piece were separated and the diameter of bulbs was measured under a stereoscopic microscope.
FIGS. 6 and 7 show the results. In these figures, each numerical value means mean±S.E. of bulb diameters of all follicles contained in each skin tissue piece. To compare the control group with the test groups, Student's t-test was employed: • *:P<0.05.

WNT-5A mRNA [3] = test: Decrease in WNT-5A mRNA in monkey skin organ culture (RT-PCR), Test Example 6; type: cell-based, Cynomolgus monkey (Macaca fascicularis); conditions: 40-cycle PCR, hair follicles, 11th day of culturing, FIG. 4
Protocol: as §4, with “μg/ml” for “μg/ml of”, “ng/ml” for “ng/ml of”
On the 11th day of the culturing, hair follicles were separated from each skin tissue piece and total RNAs were extracted by using TRIzol reagent (Invitrogen). Using 200 ng portions of the total RNAs, 0.4 μM portions of primers specific to WNT-5A or glyceraldehyde3-phosphate dehydrogenase (GAPDH) [WNT-5A sense: AATGTCTTCCAAGTTCTTCCTAGTGGC (SEQ ID NO-8), WNT-5A antisense: GATGTCGGAATTGATACTGGCA (SEQ ID NO:9), GAPDH sense: ACCACAGTCC ATGCCATCAC (SEQ ID NO:10) and GAPDH antisense: TCCACCACCC TGTTGCTGTA (SEQ ID NO:11)] and SUPERSCRIPT One-Step RT-PCT with PLATINUM Taq (Invitrogen), RT-PCR was cared out in accordance with the protocol attached to SUPERSCRIPT One-Step RT-PCT with PLATINUM Taq. In brief, first strand synthesis was carried out at 50° C. for 30 minutes in a reaction system of 25 μl in total volume in accordance with the protocol attached to SUPERSCRIPT One-Step RT-PCT with PLATINUM Taq. […]

GAPDH mRNA = GAPDH mRNA amount (QuantiGene bDNA method), Test Example 4; type: cell-based; conditions: Human dermal papilla cell; human dermal papilla cells, 24 hours, concentration at which the mRNA amount is halved, average of 2 wells
Protocol: as §1, §2
As GAPDH-specific probe set, use was made of bDNA probe set for human GAPDH (XenoTech LLC, B0960).
as §3

[4] = test system: Human dermal papilla cells; test: Dermal papilla cell growth promoting activity (WST-1, spheroid culture), Test Example 5; type: cell-based; conditions: for activity at 1 µM / activity at 4 µM / activity at 16 µM: Homo sapiens, Human dermal papilla cell, 72 hours, average of 3 wells, read-out: ΔO.D. 450 nm/620 nm (% of control)
Protocol: as §1
The dermal papilla cells in passage 5 were sowed in a 96-well plate for spheroid culture to give a density of 1.5×10^4 cells/well and cultured overnight. Then, the medium was replaced by a medium to which no compound was added or a medium containing the compound and the culture was continued for additional 72 hours. After the completion of the culture, cells were counted by using a Cell Counting Kit (Wako Pure Chemicals). Five hours before the completion of the culture, WST-1 reagent at 1/10 amount per medium was added to each medium and then the optical density (O.D. 450 nm/620 nm) of the medium was measured at the completion of the culture. A positive correlation was observed between the cell number and optical density within the range of 0.25 to 4×10^4 cells/well.
In this table, each numerical value means an average of 6 wells (control group) or 3 wells (test groups). To compare the control group to the test groups, Student's t-test was employed: • *:P<0.05, **:P<0.01, ***:P<0.001.

[5] = test system: stumptailed macaque suffering from alopecia; test: Hair growth test on stumptailed macaque, Test Example 9; type: in vivo, stumptailed macaque (Macaca arctoides); conditions: lotion containing 0.3% compound
Protocol: To the forehead of a stumptailed macaque (Macaca arctoides) (male, 14 years old) suffering from alopecia, 1 mL of a lotion containing 0.3% Compound 7 was applied once a day 5 times per week for 6 months. Before the initiation of the application, the alopecia site in the forehead was marked by tattoo. The skin part including the tattoo was photographed before the initiation of the application and after applying for 6 months.

| IC50 (WNT-5A mRNA [1]) | IC50 (GAPDH mRNA) | SMILES | average bulb diameter of the follicles vs control [2] | amplified WNT-5A cDNA fragment (WNT-5A mRNA [3]) | activity at 1 µM [4] | activity at 4 µM [4] | activity at 16 µM [4] | alopecia in the forehead ([5]; 1 mL once a day 5 times per week for 6 months, FIG. 8) | thick terminal hairs ([5]; after applying for 6 months) | vellus hairs ([5]; after applying for 6 months) | growth of dermal papilla cells ([4]; no concentration stated) |
| --- | --- | --- | --- | --- | --- | --- | --- | --- | --- | --- | --- |
| 3.16 µM | 58 µM | C[C@@H]1C[C@@H]2O[C@H]2CC/C=C/C(=O)Cc2c(Cl)c(O)cc(O)c2C(=O)O1 [Compound 3] | significantly higher; also recorded: enlarges the hair bulb diameter | remarkably decreased | 92.9 ± 1.6% | 92.9 ± 9.9% | 244 ± 33.4% |  |  |  |  |
| 4.07 µM | > 120 µM | C[C@@H]1C[C@@H]2O[C@H]2CC/C=C/[C@H](O)Cc2c(Cl)c(O)cc(O)c2C(=O)O1 [Compound 7] | enlarges the hair bulb diameter; also recorded: significantly higher | remarkably decreased | 82.6 ± 3.9% | 170 ± 10.4% | 195 ± 12.7% | clearly ameliorated | increased | decreased | excellent effect of promoting the growth |
